Laboratory results reported in PubChem BioAssay (NCI).
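Abbreviation: GI50, concentration required for 50% inhibition of growth. TGI: concentration producing complete growth inhibition.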

Legend:
Test in all cases: NCI anticancer screen, dose series, 384-well format
M14 melanoma = tested on: M14 melanoma
CCRF-CEM leukemia = tested on: CCRF-CEM leukemia
KM12 colon = tested on: KM12 colon
SK-OV-3 ovarian = tested on: SK-OV-3 ovarian
BT-549 breast = tested on: BT-549 breast
SW-620 colon = tested on: SW-620 colon
IGROV1 ovarian = tested on: IGROV1 ovarian
SF-539 CNS = tested on: SF-539 CNS
CAKI-1 renal = tested on: CAKI-1 renal
MDA-MB-231 breast = tested on: MDA-MB-231 breast
NCI-H226 lung = tested on: NCI-H226 lung
RXF 393 renal = tested on: RXF 393 renal
SNB-75 CNS = tested on: SNB-75 CNS
HCT-116 colon = tested on: HCT-116 colon
T-47D breast = tested on: T-47D breast
NCI-H322M lung = tested on: NCI-H322M lung
NCI-H460 NSCLC = tested on: NCI-H460 NSCLC
HL-60(TB) leukemia = tested on: HL-60(TB) leukemia
NCI/ADR-RES ovarian = tested on: NCI/ADR-RES ovarian
HCC-2998 colon = tested on: HCC-2998 colon
U251 glioblastoma = tested on: U251 glioblastoma
UACC-257 melanoma = tested on: UACC-257 melanoma
ACHN renal = tested on: ACHN renal
TK-10 renal = tested on: TK-10 renal
SF-295 CNS = tested on: SF-295 CNS
SN12C renal = tested on: SN12C renal
SK-MEL-28 melanoma = tested on: SK-MEL-28 melanoma
SF-268 CNS = tested on: SF-268 CNS
A498 renal = tested on: A498 renal
K-562 leukemia = tested on: K-562 leukemia
MDA-MB-468 breast = tested on: MDA-MB-468 breast
MOLT-4 leukemia = tested on: MOLT-4 leukemia
HOP-92 NSCLC = tested on: HOP-92 NSCLC
SNB-19 CNS = tested on: SNB-19 CNS
OVCAR-3 ovarian = tested on: OVCAR-3 ovarian
HCT-15 colon = tested on: HCT-15 colon
MALME-3M melanoma = tested on: MALME-3M melanoma
EKVX NSCLC = tested on: EKVX NSCLC
RPMI-8226 leukemia = tested on: RPMI-8226 leukemia
MCF7 breast = tested on: MCF7 breast
OVCAR-4 ovarian = tested on: OVCAR-4 ovarian
A549 NSCLC = tested on: A549 NSCLC
HOP-62 NSCLC = tested on: HOP-62 NSCLC
NCI-H23 lung = tested on: NCI-H23 lung
UO-31 renal = tested on: UO-31 renal
OVCAR-8 ovarian = tested on: OVCAR-8 ovarian
OVCAR-5 ovarian = tested on: OVCAR-5 ovarian
NCI-H522 lung = tested on: NCI-H522 lung
MDA-MB-435 melanoma = tested on: MDA-MB-435 melanoma
UACC-62 melanoma = tested on: UACC-62 melanoma
SK-MEL-5 melanoma = tested on: SK-MEL-5 melanoma
HT29 colon = tested on: HT29 colon
COLO 205 colon = tested on: COLO 205 colon
DU-145 prostate = tested on: DU-145 prostate
HS 578T breast = tested on: HS 578T breast
786-0 renal = tested on: 786-0 renal
LOX IMVI melanoma = tested on: LOX IMVI melanoma
PC-3 prostate = tested on: PC-3 prostate

Compound: CC1=C2C[C@H]3[C@@H](CC[C@@H]4CC(NS(C)(=O)=O)CC[C@@]43C)[C@@H]2CC[C@@]2(C1)O[C@@H]1C[C@H](C)CN[C@H]1[C@H]2C (stereo partly specified)
- GI50 (M14 melanoma): 2.49 µM
- TGI (M14 melanoma): 5.93 µM
- GI50 (CCRF-CEM leukemia): 1.95 µM
- TGI (CCRF-CEM leukemia): 3.74 µM
- GI50 (KM12 colon): 8.44 µM
- TGI (KM12 colon): 20.6 µM
- GI50 (SK-OV-3 ovarian): 3.8 µM
- TGI (SK-OV-3 ovarian): 10.2 µM
- GI50 (BT-549 breast): 4.17 µM
- TGI (BT-549 breast): 12.8 µM
- GI50 (SW-620 colon): 13.8 µM
- TGI (SW-620 colon): 26.8 µM
- GI50 (IGROV1 ovarian): 1.88 µM
- TGI (IGROV1 ovarian): 3.47 µM
- GI50 (SF-539 CNS): 5.02 µM
- TGI (SF-539 CNS): 15.9 µM
- GI50 (CAKI-1 renal): 4.29 µM
- TGI (CAKI-1 renal): 15.8 µM
- GI50 (MDA-MB-231 breast): 11.6 µM
- TGI (MDA-MB-231 breast): 23.8 µM
- GI50 (NCI-H226 lung): 5.5 µM
- TGI (NCI-H226 lung): 17.6 µM
- GI50 (RXF 393 renal): 2.98 µM
- TGI (RXF 393 renal): 9.2 µM
- GI50 (SNB-75 CNS): 3.82 µM
- TGI (SNB-75 CNS): 15 µM
- GI50 (HCT-116 colon): 3.83 µM
- TGI (HCT-116 colon): 12.7 µM
- GI50 (T-47D breast): 2.12 µM
- TGI (T-47D breast): 4.28 µM
- GI50 (NCI-H322M lung): 10.9 µM
- TGI (NCI-H322M lung): 22.9 µM
- GI50 (NCI-H460 NSCLC): 1.94 µM
- TGI (NCI-H460 NSCLC): 3.61 µM
- GI50 (HL-60(TB) leukemia): 3.3 µM
- TGI (HL-60(TB) leukemia): 12.2 µM
- GI50 (NCI/ADR-RES ovarian): 13.7 µM
- TGI (NCI/ADR-RES ovarian): 26.7 µM
- GI50 (HCC-2998 colon): 3.47 µM
- TGI (HCC-2998 colon): 9.91 µM
- GI50 (U251 glioblastoma): 4.31 µM
- TGI (U251 glioblastoma): 14.2 µM
- GI50 (UACC-257 melanoma): 2.19 µM
- TGI (UACC-257 melanoma): 3.64 µM
- GI50 (ACHN renal): 2.62 µM
- TGI (ACHN renal): 6.64 µM
- GI50 (TK-10 renal): 2.75 µM
- TGI (TK-10 renal): 7.38 µM
- GI50 (SF-295 CNS): 13.3 µM
- TGI (SF-295 CNS): 26.1 µM
- GI50 (SN12C renal): 3.89 µM
- TGI (SN12C renal): 13 µM
- GI50 (SK-MEL-28 melanoma): 3.01 µM
- TGI (SK-MEL-28 melanoma): 6.71 µM
- GI50 (SF-268 CNS): 3.22 µM
- TGI (SF-268 CNS): 9.73 µM
- GI50 (A498 renal): 2.99 µM
- TGI (A498 renal): 7.76 µM
- GI50 (K-562 leukemia): 1.83 µM
- TGI (K-562 leukemia): 3.23 µM
- GI50 (MDA-MB-468 breast): 2.08 µM
- TGI (MDA-MB-468 breast): 3.96 µM
- GI50 (MOLT-4 leukemia): 1.83 µM
- TGI (MOLT-4 leukemia): 3.55 µM
- GI50 (HOP-92 NSCLC): 3.4 µM
- TGI (HOP-92 NSCLC): 12.7 µM
- GI50 (SNB-19 CNS): 5.22 µM
- TGI (SNB-19 CNS): 16.4 µM
- GI50 (OVCAR-3 ovarian): 3.97 µM
- TGI (OVCAR-3 ovarian): 11.5 µM
- GI50 (HCT-15 colon): 3.89 µM
- TGI (HCT-15 colon): 13.6 µM
- GI50 (MALME-3M melanoma): 1.88 µM
- TGI (MALME-3M melanoma): 3.32 µM
- GI50 (EKVX NSCLC): 3.44 µM
- TGI (EKVX NSCLC): 8.77 µM
- GI50 (RPMI-8226 leukemia): 3.72 µM
- TGI (RPMI-8226 leukemia): 11.2 µM
- GI50 (MCF7 breast): 3.24 µM
- TGI (MCF7 breast): 11.9 µM
- GI50 (OVCAR-4 ovarian): 5.29 µM
- TGI (OVCAR-4 ovarian): 14.8 µM
- GI50 (A549 NSCLC): 4 µM
- TGI (A549 NSCLC): 14.2 µM
- GI50 (HOP-62 NSCLC): 4.47 µM
- TGI (HOP-62 NSCLC): 15.1 µM
- GI50 (NCI-H23 lung): 14.9 µM
- TGI (NCI-H23 lung): 28.2 µM
- GI50 (UO-31 renal): 3.9 µM
- TGI (UO-31 renal): 13.7 µM
- GI50 (OVCAR-8 ovarian): 13.4 µM
- TGI (OVCAR-8 ovarian): 26.3 µM
- GI50 (OVCAR-5 ovarian): 13.8 µM
- TGI (OVCAR-5 ovarian): 26.8 µM
- GI50 (NCI-H522 lung): 3.46 µM
- TGI (NCI-H522 lung): 8.3 µM
- GI50 (MDA-MB-435 melanoma): 12.4 µM
- TGI (MDA-MB-435 melanoma): 25 µM
- GI50 (UACC-62 melanoma): 10.7 µM
- TGI (UACC-62 melanoma): 22.6 µM
- GI50 (SK-MEL-5 melanoma): 1.72 µM
- TGI (SK-MEL-5 melanoma): 3.12 µM
- GI50 (HT29 colon): 1.9 µM
- TGI (HT29 colon): 3.55 µM
- GI50 (COLO 205 colon): 2.46 µM
- TGI (COLO 205 colon): 5.34 µM
- GI50 (DU-145 prostate): 5.47 µM
- TGI (DU-145 prostate): 16.6 µM
- GI50 (HS 578T breast): 10.8 µM
- TGI (HS 578T breast): 22.7 µM
- GI50 ([…]-0 renal): 2.21 µM
- TGI (786-0 renal): 5.06 µM
- GI50 (LOX IMVI melanoma): 1.88 µM
- TGI (LOX IMVI melanoma): 3.6 µM
- GI50 (PC-3 prostate): 3.6 µM
- TGI (PC-3 prostate): 11.5 µM
